*1 amine or outer side, *2 acyl side, *3 side chain or, on linkers, in order; H or OH if unused. Where a SMILES comes first, the peptide text is derived from it. [ ]: non-standard residue; d: D form. The star is where a group is joined. Dnp = O=[N+]([O-])c1ccc(*)c([N+](=O)[O-])c1; X2 = O=C([C@H](CCCCOCc1ccccc1)N[*:1])[*:2]; X1 = O=C([C@H](CCCCOc1ccccc1)N[*:1])[*:2]; Mca = COc1ccc2c(CC(=O)*)cc(=O)oc2c1; Dap = NC[C@H](N)C(=O)O
Key:
MMP-7 = biological target: T1, MMP-7 (Homo sapiens, UniProt P09237); assay: Km and kcat/Km of substrates with MMP-7; type: biochemical; settings: summary of Table 1
T1 sequence (P09237 95-267): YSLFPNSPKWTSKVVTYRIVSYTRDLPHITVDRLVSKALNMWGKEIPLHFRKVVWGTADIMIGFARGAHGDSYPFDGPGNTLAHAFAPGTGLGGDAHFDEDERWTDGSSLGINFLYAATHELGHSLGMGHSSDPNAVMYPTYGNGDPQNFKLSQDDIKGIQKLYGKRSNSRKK

MMP-1 = biological target: T2, MMP-1 (Homo sapiens, UniProt P03956); assay: Km and kcat/Km of substrates with MMP-1; type: biochemical; settings: summary of Table 1
T2 sequence (P03956 100-469): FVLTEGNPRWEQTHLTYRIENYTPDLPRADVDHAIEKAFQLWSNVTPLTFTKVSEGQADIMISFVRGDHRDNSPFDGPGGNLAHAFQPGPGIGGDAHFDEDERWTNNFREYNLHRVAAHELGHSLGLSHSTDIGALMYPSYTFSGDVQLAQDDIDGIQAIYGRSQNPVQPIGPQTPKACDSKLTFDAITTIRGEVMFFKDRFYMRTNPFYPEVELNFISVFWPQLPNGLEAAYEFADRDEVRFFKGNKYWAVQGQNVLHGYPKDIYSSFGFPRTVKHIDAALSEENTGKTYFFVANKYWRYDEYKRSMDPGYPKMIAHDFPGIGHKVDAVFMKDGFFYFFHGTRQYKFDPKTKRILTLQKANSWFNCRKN

[1] = octanol/water; Tao et al., J. Mol. Model. 1999; cited from earlier work

Row | SMILES | kcat with MMP-7 (in words) (MMP-7) | kcat with MMP-1 (in words) (MMP-1) | Log D contribution in a peptide [1]
1 | COc1ccc2c(CC(=O)N[C@@H](CCCNC(=N)N)C(=O)N3CCC[C@H]3C(=O)N[C@@H](CC(C)C)C(=O)NCC(=O)N[C@@H](CCCCOCc3ccccc3)C(=O)N[C@@H](CNc3ccc([N+](=O)[O-])cc3[N+](=O)[O-])C(=O)N[C@@H](C)C(=O)N[C@@H](CCCNC(=N)N)C(=O)N[C@@H](CCC(=O)O)C(=O)N[C@@H](CCCNC(=N)N)C(N)=O)cc(=O)oc2c1 [Compound 20, N-2-[(7-methoxy-2-oxo-2H-chromen-4-yl)acetyl]-L-arginyl-L-prolyl-L-leucylglycyl-6-(benzyloxy)-L-norleucyl-3-[(2,4-dinitrophenyl)amino]-L-alanyl-L-alanyl-L-arginyl-L-alpha-glutamyl-L-argininamide] (Mca-RPLG[X2][Dap](Dnp)ARER-NH2) | low kcat or kcat of zero | low kcat or kcat of zero | 
2 | COc1ccc2c(CC(=O)N[C@H](CCCNC(=N)N)C(=O)N3CCC[C@H]3C(=O)N[C@@H](CC(C)C)C(=O)NCC(=O)N[C@@H](CCCCOCc3ccccc3)C(=O)N[C@@H](CNc3ccc([N+](=O)[O-])cc3[N+](=O)[O-])C(=O)N[C@@H](C)C(=O)N[C@H](CCCNC(=N)N)C(=O)N[C@H](CCC(=O)O)C(=O)N[C@H](CCCNC(=N)N)C(N)=O)cc(=O)oc2c1 [Compound 21, N-2-[(7-methoxy-2-oxo-2H-chromen-4-yl)acetyl]-D-arginyl-L-prolyl-L-leucylglycyl-6-(benzyloxy)-L-norleucyl-3-[(2,4-dinitrophenyl)amino]-L-alanyl-L-alanyl-D-arginyl-D-alpha-glutamyl-D-argininamide] (Mca-[dR]PLG[X2][Dap](Dnp)A[dR][dE][dR]-NH2) | low kcat or kcat of zero | low kcat or kcat of zero | 
3 | COc1ccc2c(CC(=O)N[C@H](CCCNC(=N)N)C(=O)N3CCC[C@H]3C(=O)N[C@@H](CC(C)C)C(=O)NCC(=O)N[C@@H](CCCCOc3ccccc3)C(=O)N[C@@H](CNc3ccc([N+](=O)[O-])cc3[N+](=O)[O-])C(=O)N[C@@H](C)C(=O)N[C@H](CCCNC(=N)N)C(=O)N[C@H](CCC(=O)O)C(=O)N[C@H](CCCNC(=N)N)C(N)=O)cc(=O)oc2c1 [Compound 25, N-2-[(7-methoxy-2-oxo-2H-chromen-4-yl)acetyl]-D-arginyl-L-prolyl-L-leucylglycyl-6-phenoxy-L-norleucyl-3-[(2,4-dinitrophenyl)amino]-L-alanyl-L-alanyl-D-arginyl-D-alpha-glutamyl-D-argininamide] (Mca-[dR]PLG[X1][Dap](Dnp)A[dR][dE][dR]-NH2) | low kcat or kcat of zero | low kcat or kcat of zero | 
4 | C[C@H](N)C(=O)O [alanine] |  |  | −0.27
5 | N=C(N)NCCC[C@H](N)C(=O)O [arginine] |  |  | −1.65
6 | NC(=O)C[C@H](N)C(=O)O [asparagine] |  |  | −0.98
7 | N[C@@H](CC(=O)O)C(=O)O [aspartic acid] |  |  | −2.06
8 | N[C@@H](CCC(=O)O)C(=O)O [glutamic acid] |  |  | −2.19
9 | NCC(=O)O [glycine] |  |  | −0.22
10 | N[C@@H](Cc1c[nH]cn1)C(=O)O [histidine] |  |  | −0.44
11 | NCCCC[C@H](N)C(=O)O [lysine] |  |  | −2.27
12 | C[C@@H](O)[C@H](N)C(=O)O [threonine] |  |  | −0.26

— patent publication US20040018561A1, “Peptide compounds and their use as protease substrates” (priority 2002, published 2004)
